For the first assay, the system named is Spontaneously hypertensive rats (SHR). Nature of the assay: Acute Efficacy in Spontaneously Hypertensive Rats (SHR), telemetry blood pressure. Format: in vivo, rat. The settings on record: single oral dose 0.1 mpk P.O. In short, it runs like this: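 Male SHR with aortic telemetry catheters, 14-day recovery, conscious and freely moving; single oral gavage in 10% transcutol/20% Cremophor/70% water. BP sampled 30 s every 10 min, hourly averages minus prior-day vehicle baseline; value is maximum peak SBP decrease at stated mg/kg PO dose.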
Consider `CC1(c2nnc(C(F)F)o2)C(=O)Nc2nc(-c3nn(CCC(F)(F)C(F)(F)F)c4ncccc34)nc(N)c21` (stereo not drawn) [Example 212, 4-amino-5-[5-(difluoromethyl)-1,3,4-oxadiazol-2-yl]-5-methyl-2-[1-(3,3,4,4.4-pentafluorobutyl)-1H-pyrazolo[3,4-b]pyridin-3-yl]-5,7-dihydro-6H-pyrrolo(2,3-d]pyrimidin-6-one], for which the “Maximum peak decrease of systolic blood pressure (SBP) in SHR, Category” value (“Maximum peak decrease” below) was “B (Category B=SBP in SHRs 25-40 mmHg)”.
With `CC1(C(N)=O)C(=O)Nc2nc(-c3nn(CCC(F)(F)C(F)(F)F)c4nc(Cl)ccc34)nc(N)c21` (stereo not drawn) [Example 214, 4-amino-2-[6-chloro-1-(3,3,4,4,4-pentafluorobutyl)-1H-pyrazolo[3,4-b]pyridin-3-yl]-5-methyl-6-oxo-6,7-dihydro-5H-pyrrolo[2,3-d]pyrimidine-5-carboxamide], the “Maximum peak decrease” value is on record as “A (Category A=SBP in SHRs<25 mmHg)”.
The same measure, in the same setting: the entry for `CC1(c2nnc(CC(F)(F)F)o2)C(=O)Nc2nc(-c3nn(CCC(F)(F)C(F)(F)F)c4ncccc34)nc(N)c21` (stereo not drawn) [Example 216, 4-amino-5-methyl-2-[1-(3,3,4,4,4-pentafluorobutyl)-1H-pyrazolo[3,4-b]pyridin-3-yl]-5-[5-(2,2,2-trifluoroethyl)-1,3,4-oxadiazol-2-yl]-5,7-dihydro-6H-pyrrolo[2,3-d]pyrimidin-6-one] is “A (Category A=SBP in SHRs<25 mmHg)”.

Staying with this assay, now noted: single oral dose 0.3 mpk P.O.
With `CC1(C(=O)NC2CCC2)C(=O)Nc2nc(-c3nn(CCC(F)(F)C(F)(F)F)c4cc(Cl)ccc34)nc(N)c21` (stereo not drawn) [Example 196, 4-amino-2-[6-chloro-1-(3,3,4,4,4-pentafluorobutyl)-1H-indazol-3-yl]-N-cyclobutyl-5-methyl-6-oxo-6,7-difluoro-5H-pyrrolo[2,3-d]pyrimidine-5-carboxamide], the “Maximum peak decrease” value is “B (Category B=SBP in SHRs 25-40 mmHg)”.
Regarding `CC(C)NC(=O)C1(C)C(=O)Nc2nc(-c3nn(CCC(F)(F)C(F)(F)F)c4ncccc34)nc(N)c21` (stereo not drawn) [Example 197, 4-amino-5-methyl-N-(1-methylethyl)-6-oxo-2-[1-(3,3,4,4,4-pentafluorobutyl)-1H-pyrazolo[3,4-b]pyridin-3-yl]-6,7-dihydro-5H-pyrrolo[2,3-d]pyrimidine-5-carboxamide], the “Maximum peak decrease” value is “B (Category B=SBP in SHRs 25-40 mmHg)”.
For `Cc1nnc(C2(C)C(=O)Nc3nc(-c4nn(CCC(F)(F)F)c5cc(Cl)ccc45)nc(N)c32)o1` (stereo not drawn) [Example 198, 4-amino-2-[6-chloro-1-(3,3,3-trifluoropropyl)-1H-indazol-3-yl]-5-methyl-5-(5-methyl-1,3,4-oxadiazol-2-yl)-5,7-dihydro-6H-pyrrolo[2,3-d]pyrimidin-6-one], the “Maximum peak decrease” value is recorded as “B (Category B=SBP in SHRs 25-40 mmHg)”.
Still for that read-out and setting: the result for `CC(C)n1nc(C2(C)C(=O)Nc3nc(-c4nn(CCC(F)(F)C(F)(F)F)c5ccncc45)nc(N)c32)oc1=O` (stereo not drawn) [Example 199, 4-amino-5-methyl-5-[4-(1-methylethyl)-5-oxo-4,5-dihydro-1,3,4-oxadiazol-2-yl]-2-[1-(3,3,4,4,4-pentafluorobutyl)-1H-pyrazolo[3,4-d]pyridin-3-yl]-5,7-dihydro-6H-pyrrolo[2,3-d]pyrimidin-6-one] reads “B (Category B=SBP in SHRs 25-40 mmHg)”; that for `CC1(C(=O)NC2CC2)C(=O)Nc2nc(-c3nn(CCOC(F)(F)F)c4ncccc34)nc(N)c21` (stereo not drawn) [Example 200, 4-amino-N-cyclopropyl-5-methyl-6-oxo-2-{1-[2-(trifluoromethoxy)ethyl]-1H-pyrazolo[3,4-6]pyridin-3-yl}-6,7-dihydro-5H-pyrrolo[2,3-d]pyrimidine-5-carboxamide], “C (Category C=SBP in SHRs>40 mmHg)”.
Still for that read-out and setting: the result for `CC1(N)C(=O)Nc2nc(-c3nn(CCC(F)(F)C(F)(F)F)c4cc(Cl)ccc34)nc(N)c21` (stereo not drawn) [Example 201, 4,5-diamino-2-[6-chloro-1-(3,3,4,4,4-pentafluorobutyl)-1H-indazol-3-yl]-5-methyl-5,7-dihydro-6H-pyrrolo[2,3-d]pyrimidin-6-one] reads “A (Category A=SBP in SHRs<25 mmHg)”; that for `CC1(NCC2CC2)C(=O)Nc2nc(-c3nn(CCC(F)(F)C(F)(F)F)c4cc(Cl)ccc34)nc(N)c21` (stereo not drawn) [Example 202, 4-amino-2-[6-chloro-1-(3,3,4,4,4-pentafluorobutyl)-1H-indazol-3-yl)-5-[(cyclopropylmethyl)amino]-5-methyl-5,7-dihydro-6H-pyrrolo[2,3-d]pyrimidin-6-one], “C (Category C=SBP in SHRs>40 mmHg)”; that for `CC1(c2nnc(C(F)(F)F)o2)C(=O)Nc2nc(-c3nn(CCC(F)(F)C(F)(F)F)c4ccncc34)nc(N)c21` (stereo not drawn) [Example 203, 4-amino-5-methyl-2-[1-(3,3,4,4,4-pentafluorobutyl)-1H-pyrazolo[3,4-d]pyridin-3-yl]-5-[5-(trifluoromethyl)-1,3,4-oxadiazol-2-yl)-5,7-dihydro-6H-pyrrolo[2,3-d]pyrimidin-6-one], “C (Category C=SBP in SHRs>40 mmHg)”.
Turning to `CC1(c2nnco2)C(=O)Nc2nc(-c3nn(CCC(F)(F)C(F)(F)F)c4ncccc34)nc(N)c21` (stereo not drawn) [Example 204, 4-amino-5-methyl-5-(1,3,4-oxadiazol-2-yl)-2-[1-(3,3,4,4,4-pentafluorobutyl)-1H-pyrazolo[3,4-b]pyridin-3-yl]-5,7-dihydro-6H-pyrrolo[2,3-d]pyrimidin-6-one], the “Maximum peak decrease” value was “B (Category B=SBP in SHRs 25-40 mmHg)”.
Same read-out and setting: the entry for `Cc1nc(C2(C)C(=O)Nc3nc(-c4nn(CCC(F)(F)C(F)(F)F)c5ncccc45)nc(N)c32)sc1C` (stereo not drawn) [Example 206, 4-amino-5-(4,5-dimethyl-1,3-thiazol-2-yl)-5-methyl-2-[1-(3,3,4,4,4-pentafluorobutyl)-1H-pyrazolo[3,4-b]pyridin-3-yl]-5,7-dihydro-6H-pyrrolo[2,3-d]pyrimidin-6-one] is “C (Category C=SBP in SHRs>40 mmHg)”; for `CC1(c2nc(C(F)(F)F)no2)C(=O)Nc2nc(-c3nn(CCC(F)(F)C(F)(F)F)c4ncccc34)nc(N)c21` (stereo not drawn) [Example 207, 4-amino-5-methyl-2-[1-(3,3,4,4,4-pentafluorobutyl)-1H-pyrazolo[3,4-b]pyridin-3-yl]-5-[3-(trifluoromethyl)-1,2,4-oxadiazol-5-yl]-5,7-dihydro-6H-pyrrolo[2,3-d]pyrimidin-6-one] it is “C (Category C=SBP in SHRs>40 mmHg)”; for `Cn1ccc(NC(=O)C2(C)C(=O)Nc3nc(-c4nn(CCOC(F)(F)F)c5ncccc45)nc(N)c32)n1` (stereo not drawn) [Example 210, 4-amino-5-methyl-N-(1-methyl-1H-pyrazol-3-yl)-6-oxo-2-{1-[2-(trifluoromethoxy)ethyl]-1H-pyrazolo[3,4-b]pyridin-3-yl}-6,7-dihydro-5H-pyrrolo[2,3-d]pyrimidine-5-carboxamide] it is “B (Category B=SBP in SHRs 25-40 mmHg)”.
The same measure, in the same setting: the entry for `CCc1nnc(C2(C)C(=O)Nc3nc(-c4nn(CCC(F)(F)C(F)(F)F)c5ncccc45)nc(N)c32)o1` (stereo not drawn) [Example 211, 4-amino-5-(5-ethyl-1,3,4-oxadiazol-2-yl)-5-methyl-2-[1-(3,3,4,4,4-pentafluorobutyl)-1H-pyrazolo[3,4-b]pyridin-3-yl]-5,7-dihydro-6H-pyrrolo[2,3-d]pyrimidin-6-one] is “C (Category C=SBP in SHRs>40 mmHg)”; for `CC(C)c1nnc(C2(C)C(=O)Nc3nc(-c4nn(CCC(F)(F)C(F)(F)F)c5ncccc45)nc(N)c32)o1` (stereo not drawn) [Example 213, 4-amino-5-methyl-5-[5-(1-methylethyl)-1,3,4-oxadiazol-2-yl]-2-[1-(3,3,4,4,4-pentafluorobutyl)-1H-pyrazolo[3,4-b]pyridin-3-yl]-5,7-dihydro-6H-pyrrolo[2,3-d]pyrimidin-6-one] it is “C (Category C=SBP in SHRs>40 mmHg)”; for `Cn1cc(NC(=O)C2(C)C(=O)Nc3nc(-c4nn(CCOC(F)(F)F)c5ncccc45)nc(N)c32)cn1` (stereo not drawn) [Example 215, 4-amino-5-methyl-N-(1-methyl-1H-pyrazol-4-yl)-6-oxo-2-{1-[2-(trifluoromethoxy)ethyl]-1H-pyrazolo[3,4-b]pyridin-3-yl}-6,7-dihydro-5H-pyrrolo[2,3-d]pyrimidine-5-carboxamide] it is “B (Category B=SBP in SHRs 25-40 mmHg)”.

Still in this assay, the particulars now being: single oral dose 1 mpk P.O.
`CC1(C(N)=S)C(=O)Nc2nc(-c3nn(CCC(F)(F)C(F)(F)F)c4ncccc34)nc(N)c21` (stereo not drawn) [Example 205, 4-amino-5-methyl-6-oxo-2-[1-(3,3,4,4,4-pentafluorobutyl)-1H-pyrazolo[3,4-6]pyridin-3-yl]-6,7-dihydro-5H-pyrrolo[2,3-d]pyrimidine-5-carbothioamide]: the “Maximum peak decrease” value is “C (Category C=SBP in SHRs>40 mmHg)”.
On the same count and under the same terms, the result for `CC1(CC(=O)NC2CC2)C(=O)Nc2nc(-c3nn(CCC(F)(F)C(F)(F)F)c4cc(Cl)ccc34)nc(N)c21` (stereo not drawn) [Example 208, 2-{4-amino-2-[6-chloro-1-(3,3,4,4,4-pentafluorobutyl)-1H-indazol-3-yl]-5-methyl-6-oxo-6,7-dihydro-5H-pyrrolo[2,3-d]pyrimidin-5-yl}-N-cyclopropylacetamide] reads “A (Category A=SBP in SHRs<25 mmHg)”; that for `CC1(C(=O)Nc2ccccn2)C(=O)Nc2nc(-c3nn(CCOC(F)(F)F)c4ncccc34)nc(N)c21` (stereo not drawn) [Example 209, 4-amino-5-methyl-6-oxo-N-pyridin-2-yl-2-{1-[2-(trifluoromethoxy)ethyl]-1H-pyrazolo[3,4-b]pyridin-3-yl}-6,7-dihydro-5H-pyrrolo[2,3-d]pyrimidine-5-carboxamide], “B (Category B=SBP in SHRs 25-40 mmHg)”.
